From patent publication US12501900B2, “Heterocyclyl pyridazine as fungicidal compounds” (Bayer Aktiengesellschaft, priority 2018, dated 2025) come the findings set out here.

For data set [1], the system named is Colletotrichum lindemuthianum. Nature of the data set: In vivo preventive test on Colletotrichum lindemuthianum (leaf spot on bean). The settings on record: 168 h, 500 ppm of active ingredient, preventive spray on bean, evaluated 7 days after inoculation, read-out: efficacy.
Data set [2] in a line: Measurement of LogP values by HPLC on reversed phase columns (EEC directive 79/831 Annex V.A8), methods [a], [b], [c]. The settings on record: HPLC on reversed phase column, method [a]; read-out: Log P. It is filed as physicochemical. An outline of the steps:
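Log P determined by reversed-phase HPLC following EEC directive 79/831 Annex V.A8. Multiple values within one method are listed joined by "+". Lambda-max taken from UV spectra over 200–400 nm at chromatographic peak maxima.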

For another data set, the system named is Botrytis cinerea. As to the kind of experiment: In vivo preventive test on Botrytis cinerea (grey mould). The settings on record: 500 ppm of active ingredient, preventive spray on gherkin or cabbage, evaluated 4 to 5 days after inoculation, read-out: efficacy.

As for `COc1cccc(Oc2nnc(Cl)cc2C2=NOCC(Cc3ccc(C)cc3C)N2)c1F` (racemic) [I-005, rac-3-[6-chloro-3-(2-fluoro-3-methoxy-phenoxy)pyridazin-4-yl]-5-[(2,4-dimethylphenyl)methyl]-5,6-dihydro-4H-1,2,4-oxadiazine], the pest or weed control at 500 ppm (in data set [1]; with Botrytis cinerea) was 90 to 100% throughout. For the same molecule, the chromatographic logP in data set [2] was determined as 3.91.
In the case of `C=C(OCC)c1cc(C2=NOCC(Cc3ccc(C)cc3C)N2)c(Oc2cccc(C(F)(F)F)c2)nn1` (racemic) [I-009, rac-5-[(2,4-dimethylphenyl)methyl]-3-[6-(1-ethoxyvinyl)-3-[3-(trifluoro-methyl)phenoxy]pyridazin-4-yl]-5,6-dihydro-4H-1,2,4-oxadiazine], the pest or weed control at 500 ppm (in data set [1]; with Botrytis cinerea) was 90 to 100% throughout. In addition, the chromatographic logP in data set [2] was 4.98.
For `FC(F)(F)c1cccc(Oc2nnc(Cl)cc2C2=NOCC(Cc3ccc(Br)cc3Cl)N2)c1` (racemic) [I-016, rac-5-[(4-bromo-2-chloro-phenyl)methyl]-3-[6-chloro-3-[3-(trifluoromethyl)phenoxy]pyridazin-4-yl]-5,6-dihydro-4H-1,2,4-oxadiazine], the pest or weed control at 500 ppm (in data set [1]; in the data set on Botrytis cinerea) was 90 to 100% throughout. Further, the chromatographic logP in data set [2] was determined as 4.61.
As to `COCCOc1c(Cl)nnc(Oc2cccc(C(F)(F)F)c2)c1C1=NOCC(Cc2ccc(C)cc2C)N1` (racemic) [I-072, rac-3-[6-chloro-5-(2-methoxyethoxy)-3-[3-(trifluoro-methyl)phenoxy]pyridazin-4-yl]-5-[(2,4-dimethylphenyl)methyl]-5,6-dihydro-4H-1,2,4-oxadiazine], the pest or weed control at 500 ppm (in data set [1]; in the data set with Botrytis cinerea) was 90 to 100% throughout. In addition, in data set [2], the chromatographic logP stood at 4.18.
